BigSolDB 2.1

COc1cc(CNC(=O)CCCCCCC(C)C)ccc1O
Settings	solubility (mole fraction)
in acetone, 299.49 K	0.193
in acetone, 300.47 K	0.203
in acetone, 302.34 K	0.224
in acetone, 303.46 K	0.236
in acetone, 304.58 K	0.249
in acetone, 305.69 K	0.256
in acetone, 306.75 K	0.269
in acetone, 308.78 K	0.287
in ethanol, 301.79 K	0.184
in ethanol, 303.35 K	0.196
in ethanol, 305.54 K	0.213
in ethanol, 307.86 K	0.233
in ethanol, 309.95 K	0.249
in ethanol, 311.23 K	0.258
in ethanol, 312.98 K	0.268
in ethanol, 314.44 K	0.278
in ethyl acetate, 302.07 K	0.307
in ethyl acetate, 304.12 K	0.33
in ethyl acetate, 305.29 K	0.342
in ethyl acetate, 306.48 K	0.354
in ethyl acetate, 307.69 K	0.369
in ethyl acetate, 308.81 K	0.379
in ethyl acetate, 310.65 K	0.397
in ethyl acetate, 312.79 K	0.415
in n-heptane, 298.43 K	0.000229
in n-heptane, 300.59 K	0.00026
in n-heptane, 302.85 K	0.000299
in n-heptane, 304.03 K	0.000318
in n-heptane, 305.69 K	0.000349
in n-heptane, 307.08 K	0.000378
in n-heptane, 308.84 K	0.000422
in n-heptane, 309.97 K	0.000451
in n-heptane, 311.04 K	0.00048
in n-heptane, 313.41 K	0.000549
in n-hexane, 296.14 K	0.000136
in n-hexane, 298.73 K	0.000159
in n-hexane, 300.87 K	0.000181
in n-hexane, 301.98 K	0.000196
in n-hexane, 303.09 K	0.00021
in n-hexane, 305.04 K	0.000238
in n-hexane, 307.13 K	0.000269
in n-hexane, 309.25 K	0.000309
in n-hexane, 310.68 K	0.00034
in n-hexane, 312.02 K	0.000374
in n-pentane, 297.26 K	0.000115
in n-pentane, 298.19 K	0.000122
in n-pentane, 299.27 K	0.00013
in n-pentane, 300.43 K	0.000142
in n-pentane, 301.54 K	0.000152
in water, 324.67 K	4.81e-05
in water, 325.03 K	5.24e-05
in water, 325.66 K	6.14e-05
in water, 326.29 K	7.19e-05
in water, 326.81 K	8.17e-05
in water, 327.37 K	9.26e-05
